Experimental data: patent US10806736B2 (priority 2018, dated 2020)
Entries after “also recorded” stand apart in the source; their conditions may differ.

How the values were obtained:
[1] = test system: p53; assay: p53 protein expression by western blotting in macrophages infected with M. tuberculosis; format: cell-based; conditions: rat BMDMs infected with M. tuberculosis H37Ra (one bacterium per cell); 10 μM; compared to Nutlin-3α; β-actin inner control
Text: It is confirmed whether p53 is expressed, when a cell is infected with M. tuberculosis, by subjecting the cell to the compound (K279-1558). Also, in order to analyze the role of p53 expression, the effect of p53 expression is confirmed from macrophages infected with M. tuberculosis. The cells were infected with avirulent M. tuberculosis (Mycobacterium tuberculosis H37Ra) in a ratio of one bacterium per cell by using bone marrow-derived macrophages (BMDMs), which is a rat-derived macrophage, and then the cells were subjected to Nutlin-3α and the compound (K279-1558) in a concentration of 10 μM. Thereafter, the number of M. tuberculosis surviving in the cells was measured.

[2] = test system: Mycobacterium tuberculosis H37Ra; format: cell-based; conditions: 10 μM; after 24 hours

Structure (SMILES) | p53 activity / degree of p53 protein expression (western blotting) [1] | number of M. tuberculosis surviving in macrophages [2]
CCC(SC1=Nc2ccccc2C2=NC(CC(=O)NCCc3ccccc3)C(=O)N12)C(=O)NCc1ccc(C)cc1 (stereo not drawn) [K279-1558] | remarkably higher; also recorded: increases remarkably | dropped sharply; also recorded: decreased sharply
COc1ccc(C2=N[C@@H](c3ccc(Cl)cc3)[C@@H](c3ccc(Cl)cc3)N2C(=O)N2CCNC(=O)C2)c(OC(C)C)c1 [Nutlin-3α, reference compound] | – | decreased sharply
